Data set [1] relates to MCF-7 breast cancer cells. In words: Pharmacodynamic experiment in mouse models of human breast cancer (MCF-7 tumors). The class given is in vivo, NOD/SCID female mice. The conditions noted are these: dose 10 mg/kg, once-daily oral gavage. Here is the method:
MCF-7 breast cancer cells were cultured in MEM medium containing 10% FBS, 0.01 mM NEAA, and 10 µg/mL insulin. MCF-7 cells in the exponential growth phase were collected and resuspended in PBS to a suitable concentration for subcutaneous injection into mice. The experimental animals were NOD/SCID female mice (purchased from GemPharmatech Co. Itd, Jiangsu). Before inoculation of tumor cells, a 0.36 mg/60-day slow-release estrogen tablet (17β-estradiol, Innovative Research of America, Sarasota, Florida, USA) was subcutaneously implanted on the right side of the back of the experimental animals. The day after estrogen tablet implantation, 2×10^7 MCF-7 cells were inoculated into the right mammary fatty pad of the experimental mice, wherein the cells were resuspended in PBS and Matrigel (1:1) (0.2 mL/mouse). The tumor growth was regularly observed.
When the tumors in the tumor-bearing mice grew to an average volume of approximately 245.56 mm^3, they were randomly grouped for administration based on tumor size. Grouping was performed using StudyDirector™ (version 3.1.399.19, supplier Studylog System, Inc., S. San Francisco, CA, USA). […]
After starting drug administration, the body weight and tumor size of mice were measured twice a week. […] The raw data were directly imported into the software after being measured using a balance and vernier caliper. […]

The nature of data set [2]: Pharmacokinetics in female ICR mice. The conditions noted are these: female, ICR, mouse, plasma, po, 3 mg/kg.
Protocol: Pharmacokinetic experimental steps: A suitable amount of compound to be administered was weighed, and after the final volume required was calculated, a drug solution with corresponding concentration was prepared using the medium (DMSO/HS-15/Tween 80/D5W (5:5:2:88, v/v/v/v)). For intravenous administration, each drug was administered to 9 animals (female ICR mice, provided by Chengdu Dossy Experimental Animal Co., Ltd.) at a dose of 1 mg/kg (drug volume of 10 mL/kg, drug concentration of 0.1 mg/mL). After administration, samples were alternately collected from three animals of each group at time points of 5 min, 15 min, 30 min, 1 h, 2 h, 4 h, 8 h, 12 h, and 24 h. For oral gavage, each drug was administered to 9 animals (female ICR mice) at a dose of 3 mg/kg (drug volume of 10 mL/kg, drug concentration of 0.3 mg/mL). After administration, samples are alternately collected from three animals of each group at time points of 15 min, 30 min, 1 h, 2 h, 4 h, 6 h, 8 h, 12 h, and 24 h. The samples were anticoagulated with EDTA-K2 and centrifuged at 4° C. for 5 min to separate the plasma. The plasma samples were vortexed and mixed. A suitable amount of internal standard working solution was added to the 96-well plate containing samples used for plotting standard curve, samples used for quality control, or samples to be tested; A suitable amount of methanol was added to the blank sample, vortexed and mixed thoroughly, and then centrifuged for 15 min before the supernatant was collected and injected to LC-MS/MS for analysis. The plasma concentration at each time point was used to calculate the main pharmacokinetic parameters using the Winnolin 8.3 non-compartmental model.

Take `O=C1CCC(N2Cc3cc(N4CCN(CC5CCN(c6ccc([C@@H]7c8ccc(O)cc8CC[C@@H]7c7ccccc7)cc6)CC5)CC4)ccc3C2=O)C(=O)N1` (stereo partly shown) [Control compound X, reference compound]: the “TGI (tumor growth inhibition)” value in data set [1] (day 28) turned out to be 29%. In data set [1] (end of experiment (day 28)), this compound had an average tumor volume of 362 mm^3. Besides, the half-life in data set [2] was 2.3 h. In data set [2] (AUCinf (μg*h/mL), oral administration 3 mg/kg, female ICR mice), this compound yielded an AUC(0-inf) of 1300 ng·h/mL.

Broadly, the half-life is the time needed for the level to fall by half in the phase considered. By AUC(0-inf) is commonly meant the area under the concentration-time curve extrapolated to infinity. Higher therefore signals more exposure.

Values taken from US20260258039A1, “AROMATIC COMPOUND, METHOD FOR PREPARING SAME, AND USE THEREOF IN PREPARATION OF ESTROGEN RECEPTOR DEGRADER” (Hinova Pharmaceuticals Inc., priority 2022, published 2026).
